According to ChEMBL document CHEMBL6153159, “Eperisone Analogs, Rescuers of MiaB Defects As a Prokaryotic Homologue of CDKAL1, Suppress Blood Glucose Elevation in Rats” (ACS Med Chem Lett, 2025):
Calls of active or inactive are those of the source. The rule behind the calls is not given here.

Experiments:
[1] = target: T1, Threonylcarbamoyladenosine tRNA methylthiotransferase (Homo sapiens) (UniProt Q5VV42); experiment: Rescue of mistranslation activity in CDKAL1 (unknown origin) extracted from Escherichia coli harboring MIaB deficient at 10 uM incubated for 1 hr by dual luciferase assay
T1 sequence (whole entry): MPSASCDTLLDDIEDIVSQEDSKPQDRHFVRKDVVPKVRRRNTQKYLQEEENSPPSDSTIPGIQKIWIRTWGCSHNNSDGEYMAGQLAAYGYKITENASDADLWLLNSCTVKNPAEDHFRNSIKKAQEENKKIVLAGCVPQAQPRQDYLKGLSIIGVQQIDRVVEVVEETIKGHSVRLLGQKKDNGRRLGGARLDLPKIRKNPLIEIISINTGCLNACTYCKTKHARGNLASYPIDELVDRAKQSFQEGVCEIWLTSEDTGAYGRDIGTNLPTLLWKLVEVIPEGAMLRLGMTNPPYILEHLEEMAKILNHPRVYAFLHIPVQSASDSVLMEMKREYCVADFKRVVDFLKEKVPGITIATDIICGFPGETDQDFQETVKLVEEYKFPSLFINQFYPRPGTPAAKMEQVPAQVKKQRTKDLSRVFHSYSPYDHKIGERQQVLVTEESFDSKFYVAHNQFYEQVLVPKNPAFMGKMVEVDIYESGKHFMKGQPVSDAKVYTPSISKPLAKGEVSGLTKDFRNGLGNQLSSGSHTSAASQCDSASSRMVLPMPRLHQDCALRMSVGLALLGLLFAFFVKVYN

Rattus norvegicus [2] = experiment: Hypoglycemic effect in male Wister rat assessed as reduction in blood glucose level at 100 mg/kg, sc measured immediately after oral glucose challenge by OGTT analysis; format: functional, organism-based; conditions: time 0.0 min
MIN6 [3] = experiment: Induction of insulin secretion in mouse MIN6 cells at 10 uM incubated for 24 hrs by ELISA method; format: functional, cell-based
MIN6 [4] = experiment: Cytotoxicity against mouse MIN6 cells at 10 uM by MTT assay relative to control; format: toxicity, cell-based; conditions: min6, 10 µM
[5] = Drug concentration in Wister rat plasma at 100 mg/kg, sc measured after 60 mins; format: ADME, organism-based; conditions: Wistar
[6] = Drug concentration in Wister rat plasma at 100 mg/kg, po measured after 60 mins; format: ADME, organism-based; conditions: Wistar
Rattus norvegicus [7] = experiment: Antihyperglycemic activity in male Wister rat assessed as reduction in blood glucose level at 100 mg/kg, sc measured at 30 mins after oral glucose challenge by OGTT analysis; format: functional, organism-based
Rattus norvegicus [8] = experiment: Antihyperglycemic activity in male Wister rat assessed as reduction in blood glucose level at 100 mg/kg, sc measured at 60 mins after oral glucose challenge by OGTT analysis; format: functional, organism-based
MIN6 [9] = experiment: Induction of insulin secretion in mouse MIN6 cells at 3 uM incubated for 24 hrs by ELISA method; format: functional, cell-based

Row | SMILES | Ratio [1] | also measured
1 | CC(C)(C)c1ccc(C(=O)CCN2CCCCC2)cc1 | 0.8 | 
2 | CC(C)[C@H]1CC[C@H](C(=O)N[C@H](Cc2ccccc2)C(=O)O)CC1 |  | Activity (Rattus norvegicus [2]): Active
3 | CCc1ccc(C(=O)C(C)(C)CN2CCCCC2)cc1 | 0.66 | 
4 | CCc1ccc(C(=O)C(C)CN2CCCCC2)cc1 (stereo not drawn) | 0.7 | 
5 | CCc1ccc(C(=O)CCN2CCCCC2)cc1 | 0.8 | 
6 | COCCOc1ccc(C(=O)C(C)CN2CCCCC2)cc1.Cl (racemic) | 0.53 | Activity (MIN6 [3]): Active; Activity (MIN6 [4]): 3%; concentration at 1 h [5]: > 15 µM; concentration at 1 h [6]: ≤ 2 µM; Activity (Rattus norvegicus [7]): Active; Activity (Rattus norvegicus [8]): Active; Activity (Rattus norvegicus [2]): inactive
7 | CC(CN1CCCCC1)C(=O)c1ccc(C(C)(C)C)cc1.Cl (racemic) | 0.44 | Activity (MIN6 [9]): Active; Activity (MIN6 [4]): 4%; concentration at 1 h [5]: > 15 µM; concentration at 1 h [6]: ≤ 2 µM; Activity (Rattus norvegicus [7]): Active; Activity (Rattus norvegicus [8]): Active; Activity (Rattus norvegicus [2]): inactive
8 | CC(C)(C)c1ccc(C(=O)C(CN2CCCCC2)C(=O)O)cc1 (racemic) | 1.16 | 
9 | CC(C)COc1ccc(C(=O)C(C)CN2CCCCC2)cc1 (racemic) | 0.88 | 
10 | CC(C)Oc1ccc(C(=O)C(C)CN2CCCCC2)cc1 (racemic) | 0.93 | 
11 | CC(CN1CCCCC1)C(=O)c1ccc(Br)cc1 (racemic) | 0.84 | 
12 | CC(CN1CCCCC1)C(=O)c1ccc(C(C)C)cc1 (racemic) | 0.78 | 
13 | CC(CN1CCCCC1)C(=O)c1ccc(C(F)(F)F)cc1 (racemic) | 0.87 | 
14 | CC(CN1CCCCC1)C(=O)c1ccc(C2CCCCC2)cc1 (racemic) | 1.3 | 
15 | CC(CN1CCCCC1)C(=O)c1ccc(CC(C)(C)C)cc1 (racemic) | 1.05 | 
16 | CC(CN1CCCCC1)C(=O)c1ccc(Cl)cc1 (racemic) | 0.86 | 
17 | CC(CN1CCCCC1)C(=O)c1ccc(F)cc1 (racemic) | 1.08 | 
18 | CC(CN1CCCCC1)C(=O)c1ccc(O)cc1 (racemic) | 0.71 | 
19 | CC(CN1CCCCC1)C(=O)c1ccc(OCCO)cc1 (racemic) | 0.82 | 
20 | CC(CN1CCCCC1)C(=O)c1cccc(C(C)(C)C)c1 (racemic) | 0.95 | 
21 | CCC(C)(C)c1ccc(C(=O)C(C)CN2CCCCC2)cc1 (racemic) | 0.85 | 
22 | CCC(CN1CCCCC1)C(=O)c1ccc(C(C)(C)C)cc1 (racemic) | 0.73 | 

Row | SMILES | Ratio [1] | also measured
23 | CCCCOc1ccc(C(=O)C(C)CN2CCCCC2)cc1 (racemic) | 0.8 | 
24 | CCCOc1ccc(C(=O)C(C)CN2CCCCC2)cc1 (racemic) | 0.85 | 
25 | CCCc1ccc(C(=O)C(C)CN2CCCCC2)cc1 (racemic) | 1.01 | 
26 | CCOc1ccc(C(=O)C(C)CN2CCCCC2)cc1 (racemic) | 0.84 | 
27 | CCc1ccc(C(=O)C(C)CC2CCNCC2)cc1 (racemic) | 0.75 | 
28 | CCc1ccc(C(=O)C(C)CN2CCC(C)CC2)cc1 (racemic) | 0.98 | 
29 | CCc1ccc(C(=O)C(C)CN2CCC(OC)CC2)cc1 (racemic) | 1.13 | 
30 | CCc1ccc(C(=O)C(C)CN2CCC(c3ccccc3)CC2)cc1 (racemic) | 1.01 | 
31 | CCc1ccc(C(=O)C(C)CN2CCCC2)cc1 (racemic) | 1.01 | 
32 | CCc1ccc(C(=O)C(C)CN2CCCCC2)o1 (racemic) | 0.99 | 
33 | CCc1ccc(C(=O)C(C)CN2CCCCC2)s1 (racemic) | 0.63 | 
34 | CCc1ccc(C(=O)C(C)CN2CCCCCC2)cc1 (racemic) | 1.01 | 
35 | CCc1ccc(C(=O)C(C)CN2CCN(C)CC2)cc1 (racemic) | 0.7 | 
36 | CCc1ccc(C(=O)C(C)CN2CCN(CC)CC2)cc1 (racemic) | 0.71 | 
37 | CCc1ccc(C(=O)C(C)CN2CCOCC2)cc1 (racemic) | 1.29 | 
38 | CCc1ccc(C(=O)C(C)CN2CCSCC2)cc1 (racemic) | 0.97 | 
39 | CCc1ccc(C(=O)C(C)CNC2CCCCC2)cc1 (racemic) | 0.95 | 
40 | CCc1ccc(C(=O)C(C)Cc2ccncc2)cc1 (racemic) | 1.04 | 
41 | CCc1cccc(C(=O)C(C)CN2CCCCC2)c1 (racemic) | 0.95 | 
42 | CCc1ccccc1C(=O)C(C)CN1CCCCC1 (racemic) | 0.98 | 
43 | CSCCOc1ccc(C(=O)C(C)CN2CCCCC2)cc1 (racemic) | 0.96 | 
44 | Cc1ccc(C(=O)C(C)CN2CCCCC2)cc1 (racemic) | 0.99 | 
